The values that follow are results of earlier work, collected in patent US20130034605A1, “EXTENDED RELEASE PHARMACEUTICAL COMPOSITIONS CONTAINING PALIPERIDONE” (MICRO LABS LIMITED, priority 2011, published 2013).

Structures are written as SMILES. Where two headings read alike, the source gives them in different places.

As for `Cc1nc2n(c(=O)c1CCN1CCC(c3noc4cc(F)ccc34)CC1)CCCC2O` (racemic) [Paliperidone, (RS)-3-[2-[4-(6-fluorobenzo[d]isoxazol-3-yl)-1-piperidyl]ethyl]-7-hydroxy-4-methyl-1,5-diazabicyclo[4.4.0]deca-3,5-dien-2-one], the Solubility result runs as follows: (in 0.1 N hydrochloric acid) “soluble”; (in methanol) “soluble”; (in methylene chloride) “freely soluble”; (in water) “practically insoluble”.
